Test results published in US20260034112A1, “MULTI-CYCLIC IRAK1 AND IRAK4 INHIBITING COMPOUNDS AND USES THEREOF” (CHILDREN'S HOSPITAL MEDICAL CENTER, priority 2022, published 2026).

Test system: THP1 cells
Assay type: cell-based, human
Details: CA-4948 vs DMSO in THP1 cells

Cc1cc(-c2nc(C(=O)Nc3cc4oc(N5CCOCC5)nc4nc3N3CC[C@@H](O)C3)co2)ccn1 [CA-4948, emavusertib]
Log(FC) of gene FAM57B: 0.9462 | Log(FC) of gene FAM229A: 0.8452 | Log(FC) of gene FBXO15: −0.5977 | Log(FC) of gene FCRLB: 1.162 | Log(FC) of gene FFAR4: 0.5911 | Log(FC) of gene FLJ31945: −0.9544 | Log(FC) of gene FLJ45513: 1.668 | Log(FC) of gene GALR2: 0.6354 | Log(FC) of gene GAS6-AS1: 0.6025 | Log(FC) of gene GDPD3: 0.695 | Log(FC) of gene GIPR: 0.6177 | Log(FC) of gene GJC2: 0.7031 | Log(FC) of gene GNMT: 1.408 | Log(FC) of gene GP9: 0.8031 | Log(FC) of gene GPR3: −0.5921 | Log(FC) of gene GPR113: 0.7578 | Log(FC) of gene GPR135: 0.8057 | Log(FC) of gene GPR158: −0.6058 | Log(FC) of gene GSDMB: 0.7698 | Log(FC) of gene GSTM2: 0.7484 | Log(FC) of gene GUCA1B: 1.348 | Log(FC) of gene HHLA3: 0.7796 | Log(FC) of gene HLA-F-AS1: 0.5961 | Log(FC) of gene HPD: 0.6253 | Log(FC) of gene HSPA7: 0.9538 | Log(FC) of gene ID3: 0.6893 | Log(FC) of gene IGFBP3: −0.9606 | Log(FC) of gene IGFBP7-AS1: 0.9516 | Log(FC) of gene IL8: −0.7139 | Log(FC) of gene IL9R: 1.002 | Log(FC) of gene IL10RB-AS1: 0.6103 | Log(FC) of gene IPO9-AS1: 0.7271 | Log(FC) of gene ITIH4: 1.233 | Log(FC) of gene KCND1: 0.5935 | Log(FC) of gene KCNIP3: −0.6151 | Log(FC) of gene KIAA1324: 0.7793 | Log(FC) of gene KRBA2: −0.8123 | Log(FC) of gene LAMC3: 0.6855 | Log(FC) of gene LDLRAD4: 0.7569 | Log(FC) of gene LHPP: 1.078 | Log(FC) of gene LINC00337: 0.6329 | Log(FC) of gene LINC00641: 0.8241 | Log(FC) of gene LINC00893: 0.737 | Log(FC) of gene LINC00959: 0.7922 | Log(FC) of gene LOC155060: 0.6346 | Log(FC) of gene LOC284889: 0.8366 | Log(FC) of gene LOC644961: 0.6222 | Log(FC) of gene LOC728715: 0.6401 | Log(FC) of gene LOC728752: 0.7225 | Log(FC) of gene LOC100128494: 0.9913 | Log(FC) of gene LOC100129924: 1.019 | Log(FC) of gene LOC100130698: −1.064 | Log(FC) of gene LOC100130705: 0.845 | Log(FC) of gene LOC100133091: 0.5851 | Log(FC) of gene LOC100134868: 0.8444 | Log(FC) of gene LOC100288069: 0.6928 | Log(FC) of gene LOC100288102: −0.6006 | Log(FC) of gene LOC100505771: 0.7704 | Log(FC) of gene LOC100506083: 0.8144 | Log(FC) of gene LOC100506100: 0.8985 | Log(FC) of gene LOC100506472: 0.7649 | Log(FC) of gene LOC100506518: 0.7779 | Log(FC) of gene LOC100506548: 1.108 | Log(FC) of gene LOC100507373: 0.7784 | Log(FC) of gene LOC100507424: 1.26 | Log(FC) of gene LOC100507462: 0.6976 | Log(FC) of gene LOC101927085: −0.6948 | Log(FC) of gene LOC101927119: 0.6408 | Log(FC) of gene LOC101927895: 0.6379 | Log(FC) of gene LOC101927910: 1.281 | Log(FC) of gene LOC101927974: 0.7679 | Log(FC) of gene LOC101928038: 0.8781 | Log(FC) of gene LOC101928055: 0.8595 | Log(FC) of gene LOC101928710: 0.5901 | Log(FC) of gene LOC101928830: 0.7631 | Log(FC) of gene LOC101929046: 0.6794 | Log(FC) of gene LOC101929054: 0.589 | Log(FC) of gene LOC101929112: 0.5992
